Test results published in US20120195488A1, “Methods and Compositions Related to Cellular Assays” (University of utah Research Foundation, priority 2009, published 2012).

Experiments:
Assay type in all cases: cell-based
[1] = test system: γH2AX; experiment: Fraction of γH2AX positive cells in taxol treated MCF7 cells (multi-well immunofluorescence imaging)
Excerpt: (§1) Many cells (typically >1,000) over a very large field of view were imaged. At least two stainings were used simultaneously. An optional third staining, here propidium iodide (PI), was also used as a nuclear locator.
(§2) The cells were imaged in 3 channels which corresponded to the three stainings. The third channel was used for cell profiling. In a first data processing step, cells were automatically identified in the images by their signal and/or shape in one or both of the recorded channels. Alternatively, cells were identified using a nuclear counterstain and then the activator(s) were read. […] From the distributions S1(c) and S2(c), characteristic numbers were derived. For example (at the example of channel 1, same valid for channel 2).
Fraction of positive cells: F1=N1+/N
(§3) The imaging and analysis procedure were repeated for cells which were fixed at different time points t and under influence of different drug doses dd. For every condition (time point and drug dose), the parameters above were determined.
(§4) Hela, MCF7, as well as primary cells from a patient were cultured for growth in this assay. Cells were obtained and seeded initially at ˜100 cells per well/96 well plate . The cells were grown in DMEM, with 10% Fetal Falf Serum, ultra pure, along with 5% Pen/Strep. The cells after being plated were placed in an incubator at […]. with 5% CO2 and grown for a period of 28 hours to allow for adhesion and division . If the cell took to the plate and were growing normally they were allowed to continue for an additional 24 hours. […] Here, the experiment first staining for only one marker using a green label so that the read was unpolluted by any other color that could show cross reactivity with the green (as there is RED, PI staining the nucleus already, which has no cross reactivity), once the data was collected and the data satisfied that the independent signal was reproducible, a double staining was performed by adding the second marker and using a orange dye with a wavelength of 555. […]

[2] = test system: MCF7 cells; experiment: Total number of cells N in taxol treated MCF7 cells; settings: for killing of cells (total number of cells): all drug doses (10 nm to 5 um)
Excerpt: as §1, §2, §3
Hela, MCF7, as well as primary cells from a patient were cultured for growth in this assay. Cells were obtained and seeded initially at ˜100 cells per well/96 well plate . The cells were grown in DMEM, with 10% Fetal Falf Serum, ultra pure, along with 5% Pen/Strep. The cells after being plated were placed in an incubator at […]. with 5% CO2 and grown for a period of 28 hours to allow for adhesion and division . If the cell took to the plate and were growing normally they were allowed to continue for an additional 24 hours. Cells were then treated with either Taxol, Doxirubicin, or Ionizing Radiation or a combination of all 3. All drugs were added in the logarithmic titrations shown in the data at time point zero. The cells were then collected (fixed with −20 degree methanol for 7 minutes, washed with PBS, washed again and stored in PBS until the entire plate of titrations were finished. After collection, the nucleus of each cell was stained using PI (far RED) by adding PI for 15 minutes and then washing 3× the cells with sterile PBS . Once the nuclei had been stained, each well was stained for either phosphor ATM or gamma H2AX or both using primary antibodies at a dilution of 1:1000 in a PBS/Block mix for 1 hour at 37 degrees. The cell were then washed 3× with PBS and then treated with the appropriate secondary . Here, the experiment first staining for only one marker using a green label so that the read was unpolluted by any other color that could show cross reactivity with the green (as there is RED, PI staining the nucleus already, which has no cross reactivity), once the data was collected and the data satisfied that the independent signal was reproducible, a double staining was performed by adding the second marker and using a orange dye with a wavelength of 555. […]

[3] = test system: p-ATM; experiment: Average p-ATM signal per cell in taxol treated MCF7 cells
Excerpt: as §1, §2
Average signal of all cells: <S1>
as §3
as §4, with “hours. Cells were then treated with either Taxol, Doxirubicin, or Ionizing Radiation or a combination of all 3.” for “hours.”

CC(=O)O[C@H]1C(=O)[C@@]2(C)[C@H]([C@H](OC(=O)c3ccccc3)[C@]3(O)C[C@H](OC(=O)[C@H](O)[C@@H](NC(=O)c4ccccc4)c4ccccc4)C(C)=C1C3(C)C)[C@]1(OC(C)=O)CO[C@@H]1C[C@@H]2O [Taxol]
time point at which γH2AX fluorescence reaches its lowest point ([1]; 5 um dose): 12 h
Emax ([1]; Homo sapiens, all 4 doses 10 nm, 100 nm, 1 um and 5 um, 1 hour pulse, 4 hour post treatment time point, read-out: maximum response, induction rate of γH2AX (fraction of γH2AX positive cells)): ~100%
effective on a population ([1]; highest dose): 30%
killing of the entire cell population ([2]; 5 um dose): does not kill the entire population
time point at which cell killing was most effective ([2]; all drug doses): 4 h
killing of cells (total number of cells) [2]: all treatments were effective in killing cells
killing of cells (total number of cells) ([2]; listed as taxol): kill cells in a titration dependent fashion
time at which average p-ATM signal per cell is lowest ([3]; 5 uM): approximately 4 hours
p-ATM fluorescent signal, initial elevation (maximum) ([3]; 5 um dose): ~2300 a.u.
p-ATM fluorescent signal, lowest point ([3]; 5 um dose, within 4 hours): ~1000 a.u.
